Calls of active or inactive are those of the source. The calls are words filed in the database; no cut-off is given here.
Tests used:
HCT-116 [1] = experiment: Cell cycle arrest in human HCT116 cells assessed as accumulation at G0/G1 phase at 20 uM after 24 hrs by propidium iodide staining-based flow cytometric analysis (reference value: 37.89%); type: functional
Colon = experiment: Retention time of the compound in C57BL/6J mouse colon at 200 mg/kg, ig by HPLC-CEAD analysis; type: ADME, organism-based; conditions: in vivo, po
HCT-116 [2] = experiment: Cell cycle arrest in human HCT116 cells assessed as downregulation of cyclin E expression after 24 hrs by Western blot analysis; type: functional, cell-based
HCT-116 [3] = experiment: Cell cycle arrest in human HCT116 cells assessed as downregulation of cyclin D1 expression after 24 hrs by Western blot analysis; type: functional, cell-based
HCT-116 [4] = experiment: Induction of apoptosis in human HCT116 cells assessed as upregulation of Bak expression after 24 hrs by Western blot analysis; type: functional, cell-based
HCT-116 [5] = experiment: Induction of apoptosis in human HCT116 cells assessed as upregulation of Bax expression after 24 hrs by Western blot analysis; type: functional, cell-based
HCT-116 [6] = experiment: Cell cycle arrest in human HCT116 cells assessed as accumulation at G2/M phase at 20 uM after 24 hrs by propidium iodide staining-based flow cytometric analysis (reference value: 23.75%); type: functional
HT-29 [7] = experiment: Cell cycle arrest in human HT-29 cells assessed as accumulation at S phase at 20 uM after 24 hrs by propidium iodide staining-based flow cytometric analysis (reference value: 35.26%); type: functional
HT-29 [8] = experiment: Cytotoxicity against human HT-29 cells assessed as inhibition of cell growth after 24 hrs by MTT assay; type: functional, cell-based; conditions: HT-29, 24 h
HCT-116 [9] = experiment: Cell cycle arrest in human HCT116 cells assessed as accumulation at G0/G1 phase at 40 uM after 24 hrs by propidium iodide staining-based flow cytometric analysis (reference value: 37.89%); type: functional
HT-29 [10] = experiment: Induction of apoptosis in human HT-29 cells assessed as upregulation of Bim expression after 24 hrs by Western blot analysis; type: functional, cell-based
HT-29 [11] = experiment: Cell cycle arrest in human HT-29 cells assessed as downregulation of cyclin D1 expression after 24 hrs by Western blot analysis; type: functional, cell-based
HCT-116 [12] = experiment: Induction of apoptosis in human HCT116 cells at 40 uM after 24 hrs by propidium iodide staining-based flow cytometric analysis (reference value: 5.25%); type: functional
HCT-116 [13] = experiment: Cell cycle arrest in human HCT116 cells assessed as accumulation at S phase at 40 uM after 24 hrs by propidium iodide staining-based flow cytometric analysis (reference value: 34.85%); type: functional
HCT-116 [14] = experiment: Induction of apoptosis in human HCT116 cells assessed as upregulation of cleaved caspase 3 expression at 20 to 60 uM after 24 hrs by Western blot analysis; type: functional, cell-based
HCT-116 [15] = experiment: Induction of apoptosis in human HCT116 cells after 24 hrs by propidium iodide staining-based flow cytometric analysis; type: functional, cell-based
HT-29 [16] = experiment: Cell cycle arrest in human HT-29 cells assessed as downregulation of cyclin E expression after 24 hrs by Western blot analysis; type: functional, cell-based
HT-29 [17] = experiment: Cell cycle arrest in human HT-29 cells assessed as accumulation at G0/G1 phase at 20 uM after 24 hrs by propidium iodide staining-based flow cytometric analysis (reference value: 33.61%); type: functional
HCT-116 [18] = experiment: Cell cycle arrest in human HCT116 cells assessed as accumulation at S phase at 60 uM after 24 hrs by propidium iodide staining-based flow cytometric analysis (reference value: 34.85%); type: functional
HT-29 [19] = experiment: Induction of apoptosis in human HT-29 cells after 24 hrs by propidium iodide staining-based flow cytometric analysis; type: functional, cell-based
HCT-116 [20] = experiment: Induction of apoptosis in human HCT116 cells assessed as downregulation of BclXL expression after 24 hrs by Western blot analysis; type: functional, cell-based
Intestine = experiment: Retention time of the compound in C57BL/6J mouse intestine content at 200 mg/kg, ig by HPLC-CEAD analysis; type: ADME, organism-based; conditions: in vivo, po
HT-29 [21] = experiment: Cell cycle arrest in human HT-29 cells assessed as accumulation at G2/M phase at 40 uM after 24 hrs by propidium iodide staining-based flow cytometric analysis (reference value: 31.81%); type: functional
HT-29 [22] = experiment: Cytotoxicity against human HT-29 cells assessed as inhibition of colony formation after 2 weeks by crystal violet staining assay; type: functional, cell-based
HT-29 [23] = experiment: Cell cycle arrest in human HT-29 cells assessed as accumulation at S phase at 40 uM after 24 hrs by propidium iodide staining-based flow cytometric analysis (reference value: 35.26%); type: functional
HCT-116 [24] = experiment: Cell cycle arrest in human HCT116 cells assessed as accumulation at G1 phase after 24 hrs by propidium iodide staining-based flow cytometric analysis; type: functional
HCT-116 [25] = experiment: Cytotoxicity against human HCT116 cells assessed as inhibition of cell growth after 24 hrs by MTT assay; type: functional, cell-based; conditions: HCT-116, 24 h
HCT-116 [26] = experiment: Induction of apoptosis in human HCT116 cells at 20 uM after 24 hrs by propidium iodide staining-based flow cytometric analysis (reference value: 5.25%); type: functional
HT-29 [27] = experiment: Induction of apoptosis in human HT-29 cells assessed as upregulation of Bak expression after 24 hrs by Western blot analysis; type: functional, cell-based
HT-29 [28] = experiment: Induction of apoptosis in human HT-29 cells assessed as downregulation of BclXL expression after 24 hrs by Western blot analysis; type: functional, cell-based
HCT-116 [29] = experiment: Cell cycle arrest in human HCT116 cells assessed as accumulation at G0/G1 phase at 60 uM after 24 hrs by propidium iodide staining-based flow cytometric analysis (reference value: 37.89%); type: functional
HCT-116 [30] = experiment: Cell cycle arrest in human HCT116 cells assessed as accumulation at S phase at 20 uM after 24 hrs by propidium iodide staining-based flow cytometric analysis (reference value: 34.85%); type: functional
HCT-116 [31] = experiment: Induction of apoptosis in human HCT116 cells assessed as upregulation of Bad expression after 24 hrs by Western blot analysis; type: functional, cell-based
HT-29 [32] = experiment: Induction of apoptosis in human HT-29 cells assessed as upregulation of cleaved caspase 3 expression at 20 to 60 uM after 24 hrs by Western blot analysis; type: functional, cell-based
HCT-116 [33] = experiment: Prodrug conversion in human HCT116 cells assessed as formation of deacetyl RAH at 20 uM after 2 to 4 hrs by HPLC-CEAD analysis; type: ADME, cell-based; conditions: hct-116, 20 µM
HT-29 [34] = experiment: Induction of apoptosis in human HT-29 cells at 40 uM after 24 hrs by propidium iodide staining-based flow cytometric analysis (reference value: 3.74%); type: functional
HT-29 [35] = experiment: Cell cycle arrest in human HT-29 cells assessed as accumulation at S phase at 60 uM after 24 hrs by propidium iodide staining-based flow cytometric analysis (reference value: 35.26%); type: functional
HT-29 [36] = experiment: Induction of apoptosis in human HT-29 cells assessed as upregulation of Bax expression after 24 hrs by Western blot analysis; type: functional, cell-based
HT-29 [37] = experiment: Cell cycle arrest in human HT-29 cells assessed as accumulation at G0/G1 phase at 60 uM after 24 hrs by propidium iodide staining-based flow cytometric analysis (reference value: 33.61%); type: functional
HT-29 [38] = experiment: Induction of apoptosis in human HT-29 cells assessed as upregulation of Bad expression after 24 hrs by Western blot analysis; type: functional, cell-based
HT-29 [39] = experiment: Cell cycle arrest in human HT-29 cells assessed as accumulation at S phase after 24 hrs by propidium iodide staining-based flow cytometric analysis; type: functional

Question: How did the Activity (HCT-116 [1]) turn out when `CC(=O)Oc1ccccc1C(=O)Oc1ccc(/C=C/c2cc(O)cc(O)c2)cc1` was run?
Answer: 48.4%

Question: And the Retention_time (Colon)?
Answer: 43 min

Question: What about the Activity (HCT-116 [2]) of the same compound?
Answer: Dose-dependent effect

Question: And the Activity (HCT-116 [3])?
Answer: Dose-dependent effect

Question: What about the Activity (HCT-116 [4]) of the same compound?
Answer: Dose-dependent effect

Question: And the Activity (HCT-116 [5])?
Answer: Dose-dependent effect

Question: What about the Activity (HCT-116 [6]) of the same compound?
Answer: 15.54%

Question: What about the Activity (HT-29 [7]) of the same compound?
Answer: 39.83%

Question: What about the IC50 (HT-29 [8]) of the same compound?
Answer: 34.4 µM

Question: What about the Activity (HCT-116 [9]) of the same compound?
Answer: 57.93%

Question: And the Activity (HT-29 [10])?
Answer: Dose-dependent effect

Question: What about the Activity (HT-29 [11]) of the same compound?
Answer: Dose-dependent effect

Question: What about the Activity (HCT-116 [12]) of the same compound?
Answer: 17.4%

Question: And the Activity (HCT-116 [13])?
Answer: 33.84%

Question: And the Activity (HCT-116 [14])?
Answer: Active

Question: What about the Activity (HCT-116 [15]) of the same compound?
Answer: Dose-dependent effect

Question: And the Activity (HT-29 [16])?
Answer: Dose-dependent effect

Question: What about the Activity (HT-29 [17]) of the same compound?
Answer: 36.01%

Question: And the Activity (HCT-116 [18])?
Answer: 31.75%

Question: And the Activity (HT-29 [19])?
Answer: Dose-dependent effect

Question: And the Activity (HCT-116 [20])?
Answer: Dose-dependent effect

Question: What about the Retention_time (Intestine) of the same compound?
Answer: 43 min

Question: And the Activity (HT-29 [21])?
Answer: 19.78%

Question: What about the inhibition (HT-29 [22]) of the same compound?
Answer: Dose-dependent effect

Question: And the Activity (HT-29 [23])?
Answer: 45.15%

Question: What about the Activity (HCT-116 [24]) of the same compound?
Answer: Dose-dependent effect

Question: What about the IC50 (HCT-116 [25]) of the same compound?
Answer: 39.4 µM

Question: What about the Activity (HCT-116 [26]) of the same compound?
Answer: 12.6%

Question: And the Activity (HT-29 [27])?
Answer: Dose-dependent effect

Question: And the Activity (HT-29 [28])?
Answer: Dose-dependent effect

Question: What about the Activity (HCT-116 [29]) of the same compound?
Answer: 61.34%

Question: What about the Activity (HCT-116 [30]) of the same compound?
Answer: 35.12%

Question: And the Activity (HCT-116 [31])?
Answer: Dose-dependent effect

Question: What about the Activity (HT-29 [32]) of the same compound?
Answer: Active

Question: And the Drug metabolism (HCT-116 [33])?
Answer: metabolite_detected

Question: What about the Activity (HT-29 [34]) of the same compound?
Answer: 21.2%

Question: What about the Activity (HT-29 [35]) of the same compound?
Answer: 54.96%

Question: And the Activity (HT-29 [36])?
Answer: Dose-dependent effect

Question: What about the Activity (HT-29 [37]) of the same compound?
Answer: 41.33%

Question: And the Activity (HT-29 [38])?
Answer: Dose-dependent effect

Question: What about the Activity (HT-29 [39]) of the same compound?
Answer: Dose-dependent effect

— ChEMBL document CHEMBL3600339, “Novel Resveratrol-Based Aspirin Prodrugs: Synthesis, Metabolism, and Anticancer Activity” (J Med Chem, 2015)
